Literature values as cited in patent US20170239312A1, “WEIGHT MANAGEMENT SYSTEMS AND RELATED METHODS” (priority 2013, published 2017).

Experiments:
[1] = mice, high fat diet, 10 weeks
[2] = fed capsaicin versus saline (control group)
[3] = tested on: 3T3-L1 pre-adipocytes; settings: dose- and time-dependent
[4] = obese rats, 10 mg/kg-body weight
[5] = 50-200 mg/day
[6] = caffeine alone

## fucoxanthin
[1]
  Body weight and adipose tissue: significant decrease in body weight and adipose tissue

## COc1cc(CNC(=O)CCCC/C=C/C(C)C)ccc1O [capsaicin]
[2]
  Decrease in body weight: 8%

## O=c1c(O)c(-c2ccc(O)c(O)c2)oc2cc(O)cc(O)c12 [quercetin]
[3]
  Apoptosis (cell suicide): induced apoptosis
[4]
  Body weight gain: reduced body weight gain

## CCNC(=O)CC[C@H](N)C(=O)O [theanine]
[5]
  Time to sense of relaxation: 30 to 40 min

## Cn1c(=O)c2c(ncn2C)n(C)c1=O [Caffeine]
[6]
  Effect on thermogenesis or fat oxidation: no effect
